Values after ≈ are worked out from the molar mass of the structure shown. Where two headings read alike, the source gives them in different places.
Experiments:
[1] = target: T1, ThyX (Paramecium bursaria Chlorella virus 1, UniProt O41156); conditions: varying dUMP concentrations
[2] = target: T1, ThyX; experiment: biochemical
[3] = tested on: E. coli MG1655; experiment: Growth of wild type, thyA-carrying E. coli
[4] = tested on: E. coli FE010 (ΔthyA::thyX); conditions: 1.5 μg/ml (≈5 μM), thymidine-deprived medium
[5] = tested on: Helicobacter pylori 26695; experiment: MIC by broth microdilution / disc diffusion test; assay type: cell-based
Procedure: Helicobacter pylori strain 26695 and SS1 were grown on either blood agar base two (Oxoid) plates supplemented with 10% defibrinated horse blood (Oxoid) or in liquid culture in brain-heart infusion broth (Oxoid) supplemented with 10% FBS (Gibco BRL). An antibiotics-fungicide mix consisting of vancomycin (final concentration 10 μg/ml), polymyxin B (2.5 units per liter), trimethoprim (5 μg/ml), and fungizone (2.5 μg/ml) was added. Plates were incubated at 37° C. under microaerobic atmosphere in jars using the […] gas generating system (Oxoid). Liquid cultures were shaken at 175 rpm. Minimal inhibitory concentrations (MICS) were determined using a broth microdilution test in 24 well microtiter plates. […] The MIC was determined as the lowest compound concentration resulting in complete growth inhibition after 24 h of incubation. All the tests were done in triplicates and they included no cells and DMSO-only controls. […] For disc diffusion test an overnight culture of H. pylori strain 26695 was diluted to OD600≈0.01 and spread on agar plates by inundation. 10 μg of each compound were deposited onto diffusion discs and plates were incubated under microaerophilic conditions for 72 h. The diameters of each inhibition zone were measured (disk surface and a DMSO inhibition zone were subtracted). All experiments were done in triplicate, including a DMSO-only control on each plate. MIC determination by broth microdilution was not possible for M. smegmatis mc2 155 due to build up of cell aggregates in liquid cultures. The susceptibility of M. smegmatis mc2 155 towards selected compounds was thus tested using disc diffusion test on LB-agar plates as described above. The inhibition diameters were read after 48 h of incubation at 37° C.

[6] = target: T2, PBCV-1 ThyX (Paramecium bursaria Chlorella virus 1, UniProt O41156); experiment: NADPH oxidation assay, screen and IC50 by dose-response curves
Procedure: The NADPH oxidation assay for PBCV-1 ThyX activity (Graziani, S., Xia, Y., Gurnon, J. R., Van Etten, J. L., Leduc, D., Skouloubris, S., Myllykallio, H., and Liebl, U. (2004) Functional analysis of FAD-dependent thymidylate synthase ThyX from Paramecium bursaria Chlorella virus-1. J. Biol. Chem. 279, 54340-54347) was adapted for a medium throughput inhibitor screen (MTS) in 96-well plates. A typical assay with a final volume of 200 μl, contained 200 μM NADPH, 2 μM CH2H4folate, 5 μM dUMP, 1 mM MgCl2, 1% glycerol, 62.5 μM FAD and 400 nM PBCV-1 ThyX. 1982 compounds from the National Cancer Institute diversity set 1 and 340 natural compounds, selected for their diversity and drug-likeness (GreenPharma) (all in DMSO) were added to a final concentration of 20 μM for the initial screen. The microplates were prepared by a liquid handling robotic workstation (Xiril X75), and manually transferred to the automated microplate reader Chameleon II (Hidex). The reactions were started by automatically injecting NADPH into individual wells and the decrease in absorbance at 340 nm was followed at 37° C. for 5 min. Samples with added DMSO and no enzyme were used as positive and negative controls, respectively. For NADPH oxidation at 340 nm a molar extinction coefficient of 6220 M^−1 cm^−1 was used. For this assay a Z′-factor value of 0.62 was calculated, is indicating robustness of the measurement and an acceptable dynamic range of the signal (Zhang, J. H., Chung, T. D., and Oldenburg, K. R. (1999) J. Biomol. Screen. 4, 67-73). Primary hits were defined as compounds that inhibited 75% of ThyX activity at the initial screening concentration.
Compounds that inhibited PBCV-1 ThyX at 20 μM concentration in the NADPH oxidation assay were selected as hits. For each hit IC50 values were determined by fitting the data from three independent experiments to the equation for a dose-response sigmoid curve using GraphPad Prism 4 Software (GraphPad Software Inc.).
All tests were performed in triplicates in 96 well microtiter plates. A typical assay (200 μL) contained 200 μM NADPH, 2 μM dUMP, 1 mM MgCl2, 1% glycerol, 10 μM FAD, 200 nM of PBCV-1 ThyX and different concentrations of inhibitors ranging from 0.1 μM to 40 μM. The reactions were started by injection of NADPH and the absorbance at 340 nm was followed for 3 min at 37° C. […] A molar extinction coefficient for NADPH oxidation at 340 nm of 6220 M^−1 cm^−1 was used for quantification of absorption changes. The optical path length was 0.5 cm. The obtained Vi/V0 values were plotted for each inhibitor concentration and fitted to sigmoidal dose-response curves using GraphPad Prism 4 Software.

[7] = target: T2, PBCV-1 ThyX; experiment: Deprotonation (tritium release) assay of ThyX activity; assay type: biochemical, Paramecium bursaria chlorella virus (PBCV-1); conditions: read-out: % inhibition (deprotonation) PBCV-1 ThyX
[8] = tested on: Mycobacterium smegmatis mc2 155; experiment: Disc diffusion test on LB-agar plates; assay type: cell-based
Procedure: Liquid cultures were shaken at 175 rpm. Minimal inhibitory concentrations (MICS) were determined using a broth microdilution test in 24 well microtiter plates. […] The MIC was determined as the lowest compound concentration resulting in complete growth inhibition after 24 h of incubation. All the tests were done in triplicates and they included no cells and DMSO-only controls. […] For disc diffusion test an overnight culture of H. pylori strain 26695 was diluted to OD600≈0.01 and spread on agar plates by inundation. 10 μg of each compound were deposited onto diffusion discs and plates were incubated under microaerophilic conditions for 72 h. The diameters of each inhibition zone were measured (disk surface and a DMSO inhibition zone were subtracted). All experiments were done in triplicate, including a DMSO-only control on each plate. MIC determination by broth microdilution was not possible for M. smegmatis mc2 155 due to build up of cell aggregates in liquid cultures. The susceptibility of M. smegmatis mc2 155 towards selected compounds was thus tested using disc diffusion test on LB-agar plates as described above. The inhibition diameters were read after 48 h of incubation at 37° C.

[9] = tested on: human lymphoblastoid TK6 cells; experiment: GreenScreen HC genotoxicity and cytotoxicity assay
Procedure: Two strains of cultured human lymphoblastoid TK6 cells were used, the test strain (GenM-T01) and the non-fluorescent control strain (GenM-001), the latter was used to allow correction for any autofluorescence from the test. The plates were analyzed at 24 hour and 48 hour time points using a microplate reader, that allows measurements of light absorbance and fluorescence for cells and solutions in the microplate wells. Absorbance is proportional to cell proliferation, which is lowered by toxic analytes, and fluorescence is proportional to the activity of the cell's DNA repair system, which is increased by genotoxic analytes. […] The GreenScreen HC +S9 protocol uses the same cultured TK6 cell strains (GenM-001 and GenMT01). […] (5% CO2, 95% humidity) for 3 hours. After a recovery period of 45 hours the GFP fluorescence signal and cell viability (assessed by propidium iodide uptake) were measured.

[10] = Helicobacter pylori, H. pylori 26695, broth microdilution 24 h or derived from disc diffusion standard curve, read-out: MIC

T1 sequence (O41156 whole entry): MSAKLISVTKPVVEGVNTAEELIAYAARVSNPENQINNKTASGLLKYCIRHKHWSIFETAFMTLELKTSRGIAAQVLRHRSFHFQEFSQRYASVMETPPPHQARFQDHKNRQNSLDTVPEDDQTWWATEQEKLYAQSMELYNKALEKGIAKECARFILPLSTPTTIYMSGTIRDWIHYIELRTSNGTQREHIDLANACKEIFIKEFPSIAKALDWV
T2 sequence (O41156 whole entry): as above

SMILES	MIC [5, 10] [µg/mL]	IC50 [6] [µM]	inhibition at 20 µM [7] [%]	also measured
O=C1C=C(Br)C(=O)c2c(O)cccc21 [Compound 2E04, 2-bromo-8-hydroxy-1,4-naphthoquinone]	–	–	–	effect on apparent Km of the enzyme for dUMP [1]: increased the apparent Km value; Ki [2]: 1.5 µM; bactericidal activity on isogenic wild type strain [3]: not observed; growth inhibition of E. coli FE010 (ΔthyA::thyX) [4]: reproducibly inhibited
COc1ccc(C2=C(O)C(=O)c3ccccc3C2=O)cc1 [Compound A3-C2]	4.7 (≈ 16.8 µM)	8	–	–
Cc1ccc(C2=C(O)C(=O)c3ccccc3C2=O)cc1 [Compound A4-C2]	4.7 (≈ 17.8 µM)	9	–	–
O=C1C(O)=C(Cc2ccccc2)C(=O)c2ccccc21 [Compound A4-S]	1.4 (≈ 5.3 µM)	1.4	–	–
O=C1C(O)=C(c2ccc3ccccc3c2)C(=O)c2ccccc21 [Compound A7-S]	6 (≈ 20 µM)	1.2	–	–
O=C(O)c1ccccc1NC1=CC(=O)c2c(O)cccc2C1=O [Compound B3-C1, 2-(5-hydroxy-1,4-dioxo-1,4-dihydro-naphthalen-2-ylamino)benzoic acid]	–	–	12 ± 6	–
COc1ccc(CC2=C(O)C(=O)c3ccccc3C2=O)cc1 [Compound C8-C1, 2-hydroxy-3-(4-methoxybenzyl)-1,4-naphthoquinone]	2.5 to 5 (≈ 8.49 to 17 µM)	5	78 ± 4	growth inhibition / antimicrobial activity against Helicobacter pylori 26695 [5]: inhibited the growth; MIC ([5]; Helicobacter pylori, 26695, disc diffusion tests and liquid cultures, read-out: minimal inhibitory concentration (MIC)): ~2.5 µg/mL (≈ 8.49 µM); growth inhibition / antimicrobial activity against Mycobacterium smegmatis mc2155 [8]: inhibited the growth; effect on apparent Km of the enzyme for dUMP [1]: increased the apparent Km value; Ki [2]: 0.25 µM; genotoxicity ([9]; GreenScreen HC): non-genotoxic; cytotoxic activity in metabolic activation tests ([9]; S9 fraction, 10 μg/ml): further decreased; cytotoxic activity ([9]; without metabolic activation): low cytotoxic activity
O=C1C(O)=C(c2ccc(Br)cc2)C(=O)c2ccccc21 [Compound C8-S]	–	1.2	–	MIC ([5]; Helicobacter pylori, 26695, 24 h): 7 µg/mL (≈ 21.3 µM)
O=C(CC1=C(O)C(=O)c2ccccc2C1=O)c1ccccc1 [Compound E11-C1, 2-hydroxy-3-(2-oxo-2-phenylethyl)-1,4-naphthoquinone]	–	–	36 ± 5	–
Cc1ccc(C(=O)CC2=C(O)C(=O)c3ccccc3C2=O)cc1 [Compound F3-C1, 2-hydroxy-3-(2-oxo-2-p-tolylethyl)-1,4-naphthoquinone]	–	–	38 ± 7	–
O=C1C(O)=C(c2ccc(-c3ccccc3)cc2)C(=O)c2ccccc21 [Compound F6-C1, 2-(biphenyl-4-yl)-3-hydroxy-1,4-naphthoquinone]	10 (≈ 30.6 µM)	0.2	95 ± 3	–
COc1ccc(C(=O)CC2=C(O)C(=O)c3ccccc3C2=O)cc1 [Compound G3-C1, 2-hydroxy-3-(2-(4-methoxyphenyl)-2-oxoethyl)-1,4-naphthoquinone]	10 (≈ 31 µM)	13	22 ± 7	–
O=C(CC1=C(O)C(=O)c2ccccc2C1=O)c1cccs1 [Compound H3-C1, 2-hydroxy-3-(2-oxo-2-(thiophen-2-yl)ethyl)-1,4-naphthoquinone]	10 (≈ 33.5 µM)	8	38 ± 3	–
O=C1C(O)=C([C@H]2CC[C@H](c3ccc(Cl)cc3)CC2)C(=O)c2ccccc21 [atovaquone, reference compound]	–	–	–	effect on apparent Km of the enzyme for dUMP [1]: increased the apparent Km value; Ki [2]: 5 µM

Source: patent US20130102650A1, “ANTIMICROBIAL COMPOUNDS OF 1,4-NAPHTOQUINONE STRUCTURE” (priority 2010, published 2013)
